In assay [1] the target is JAK2 (recombinant purified GST-tagged catalytic domain) (Homo sapiens (Human), UniProt O60674). The assay can be described thus: Jak Biochemical HTRF Assay (JAK2). Conditions: [ATP] 8.5 μM. (In general: TR-FRET usually uses a lanthanide donor and a delayed reading to cut background.)
In assay [2] the target is JAK1 (recombinant purified GST-tagged catalytic domain) (Homo sapiens (Human), UniProt P23458). The assay can be described thus: Jak Biochemical HTRF Assay (JAK1). Conditions: [ATP] 31.8 μM. The procedure, abridged:
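Under a 120 min room-temperature, ATP-initiated reaction, peptide phosphorylation was detected by Eu-pY20/streptavidin-Dylight 650 HTRF after EDTA stop. IC50 values derive from percent inhibition curves.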

The structures appear in SMILES notation.

Sequence of JAK2 (recombinant purified GST-tagged catalytic domain) (O60674 849-1124): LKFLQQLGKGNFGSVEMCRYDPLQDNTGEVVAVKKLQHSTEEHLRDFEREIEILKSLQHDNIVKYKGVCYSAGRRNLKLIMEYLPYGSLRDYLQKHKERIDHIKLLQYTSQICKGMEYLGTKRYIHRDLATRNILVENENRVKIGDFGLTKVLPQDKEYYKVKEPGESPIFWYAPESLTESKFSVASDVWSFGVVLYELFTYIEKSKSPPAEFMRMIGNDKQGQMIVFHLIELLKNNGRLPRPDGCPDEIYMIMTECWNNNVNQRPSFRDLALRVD
Sequence of JAK1 (recombinant purified GST-tagged catalytic domain) (P23458 875-1153): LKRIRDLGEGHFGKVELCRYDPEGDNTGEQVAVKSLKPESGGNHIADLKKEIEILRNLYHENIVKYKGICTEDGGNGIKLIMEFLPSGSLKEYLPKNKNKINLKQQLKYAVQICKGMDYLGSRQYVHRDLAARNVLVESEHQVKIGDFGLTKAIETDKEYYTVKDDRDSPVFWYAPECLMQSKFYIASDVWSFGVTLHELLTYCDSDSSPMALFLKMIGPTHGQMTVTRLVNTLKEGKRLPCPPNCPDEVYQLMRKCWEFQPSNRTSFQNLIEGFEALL

For the molecule `CN(C)S(=O)(=O)c1ccc(Nc2nn(C3(CC#N)CCN(C(=O)CCC(F)(F)F)CC3)c3cc[nH]c(=O)c23)cc1` [Example 9-21, 4-({1-[4-(cyanomethyl)-1-(4,4,4-trifluorobutanoyl)piperidin-4-yl]-4-oxo-4,5-dihydro-1H-pyrazolo[4,3-c]pyridin-3-yl}amino)-N,N-dimethylbenzenesulfonamide], the IC50 (as a rule, the point on the concentration scale where inhibition reaches its midpoint) in assay [1] was found to be 0.33 nM; in assay [2] it was 0.08 nM.
In the same order, the values of `CC(C)(C)OC(=O)[C@@H]1CC[C@@](CC#N)(n2nc(Nc3ccc(S(=O)(=O)C4CC4)cc3)c3c(=O)[nH]ccc32)CO1` [Example 5-236, (2S,5S)-tert-butyl 5-(cyanomethyl)-5-(3-((4-(cyclopropylsulfonyl)phenyl)amino)-4-oxo-4,5-dihydro-1H-pyrazolo[4,3-c]pyridin-1-yl)tetrahydro-2H-pyran-2-carboxylate] are 0.25 nM and 0.12 nM.
In the same order, the values of `CS(=O)(=O)c1ccc(Nc2nn(C3(CC#N)CCN(c4cc(C(F)(F)F)ccn4)CC3)c3cc[nH]c(=O)c23)cc1` [Example 15-1, 2-(4-(3-((4-(methylsulfonyl)phenyl)amino)-4-oxo-4,5-dihydro-1H-pyrazolo[4,3-c]pyridin-1-yl)-1-(4-(trifluoromethyl)pyridin-2-yl)piperidin-4-yl)acetonitrile] are 0.37 nM and 0.16 nM.
As for `N#CC[C@]1(n2nc(Nc3ccc(C(N)C(F)(F)F)cc3)c3c(=O)[nH]ccc32)CCCC[C@H]1F` (single isomer, unassigned) [Example 5-176, {(1R,2R)-1-[3-({4-[(1R or 1S)-1-amino-2,2,2-trifluoroethyl]phenyl}amino)-4-oxo-4,5-dihydro-1H-pyrazolo [4,3-c]pyridin-1-yl]-2-fluorocyclohexyl} acetonitrile], the results for the concentration for half-maximal inhibition (IC50) in assay [1] and in assay [2] were 0.09 nM and 0.05 nM, respectively.
Regarding `CC(C)(C)OC(=O)N1CCC(CC#N)(n2nc(Nc3ccc(F)cc3)c3c(=O)[nH]ccc32)CC1` [Example 5-48, tert-butyl 4-(cyanomethyl)-4-{3-[(4-fluorophenyl)amino]-4-oxo-4,5-dihydro-1H-pyrazolo[4,3-c]pyridin-1-yl}piperidine-1-carboxylate], the IC50 in assay [1] came out at 2.26 nM; in assay [2], 0.22 nM.
On the same counts, the results for `Cc1cc(Nc2nn([C@@]3(CC#N)CCCC[C@H]3F)c3cc[nH]c(=O)c23)ccc1C(=O)N1CCC(F)(F)CC1` [Example 5-153, 2-((1R,2R)-1-(3-((4-(4,4-difluoropiperidine-1-carbonyl)-3-methylphenyl)amino)-4-oxo-4,5-dihydro-1H-pyrazolo[4,3-c]pyridin-1-yl)-2-fluorocyclohexyl) acetonitrile] are 0.08 nM and 0.09 nM.
In the case of `N#CC[C@@]1(n2nc(Nc3ccc(C(N4CCCC4)C(F)(F)F)cc3)c3c(=O)[nH]ccc32)CCCOC1` (single isomer, unassigned) [Example 5-198, {(3S)-3-[4-oxo-3-({4-[(1R or 1S)-2,2,2-trifluoro-1-pyrrolidin-1-ylethyl]phenyl}amino)-4,5-dihydro-1H-pyrazolo [4,3-c]pyridin-1-yl]tetrahydro-2H-pyran-3-yl}acetonitrile], the 50% inhibitory concentration (IC50) was determined as 0.39 nM in assay [1] and 0.16 nM in assay [2].
On the same counts, the results for `N#CC[C@]1(n2nc(Nc3ccc(OC(F)(F)F)cc3)c3c(=O)[nH]ccc32)CC[C@@H](Nc2ccccc2)CC1` [Example 18-17, Cis 2-(1-(4-oxo-3-((4-(trifluoromethoxy)phenyl)amino)-4,5-dihydro-1H-pyrazolo[4,3-c]pyridin-1-yl)-4-(phenylamino)cyclohexyl)acetonitrile] are 1100 nM and 120 nM.
In the same order, the values of `CC(C)(C)OC(=O)N1CCC(CC#N)(n2nc(Nc3ccccc3)c3c(=O)[nH]ccc32)CC1` [Example 1-2, tert-butyl 4-(cyanomethyl)-4-(4-oxo-3-(phenylamino)-4,5-dihydro-1H-pyrazolo[4,3-c]pyridin-1-yl)piperidine-1-carboxylate] are 11.9 nM and 0.45 nM.
On the same counts, the results for `Cc1cc(Nc2nn([C@@]3(CC#N)CCN(C(=O)OC(C)(C)C)C[C@H]3F)c3cc[nH]c(=O)c23)ccc1C(=O)N1CCSCC1` [Example 5-279, (3R,4R)-tert-butyl 4-(cyanomethyl)-3-fluoro-4-(3-((3-methyl-4-(thiomorpholine-4-carbonyl)phenyl)amino)-4-oxo-4,5-dihydro-1H-pyrazolo[4,3-c]pyridin-1-yl)piperidine-1-carboxylate] are 0.12 nM and 0.18 nM.
Consider `COC(=O)N1CCC(CC#N)(n2nc(Nc3ccc4c(c3)CN(C)S4(=O)=O)c3c(=O)[nH]ccc32)CC1` [Example 5-70, methyl 4-(cyanomethyl)-4-[3-[(2-methyl-1,1-dioxo-2,3-dihydro-1,2-benzothiazol-5-yl)amino]-4-oxo-1H,4H,5H-pyrazolo[4,3-c]pyridin-1-yl]piperidine-1-carboxylate], for which the IC50 in assay [1] was 0.58 nM; in assay [2] it was 0.07 nM.
Consider `CC(C)(C)OC(=O)N1CC(CC#N)(n2nc(Nc3ccccc3)c3c(=O)[nH]ccc32)C1` [Example 1-1, tert-butyl 3-(cyanomethyl)-3-(4-oxo-3-(phenylamino)-4,5-dihydro-1H-pyrazolo[4,3-c]pyridin-1-yl)azetidine-1-carboxylate], for which the concentration for half-maximal inhibition (IC50) in assay [1] stood at 25 nM; in assay [2], 2.23 nM.
On the same counts, the results for `CC(C)(C)NS(=O)(=O)c1ccc(Nc2nn(C3(CC#N)CCN(C(=O)C(C)(F)F)CC3)c3cc[nH]c(=O)c23)cc1` [Example 5-56, N-(tert-butyl)-4-((1-(4-(cyanomethyl)-1-(2,2-difluoropropanoyl)piperidin-4-yl)-4-oxo-4,5-dihydro-1H-pyrazolo[4,3-c]pyridin-3-yl)amino)benzene-sulfonamide] are 0.19 nM and 0.12 nM.
Take `N#CC[C@]1(n2nc(Nc3ccc(Cl)c(F)c3)c3c(=O)[nH]ccc32)CC[C@H](NC2CCCCC2)CC1` [Example 18-21, Trans 2-(1-(3-((4-chloro-3-fluorophenyl)amino)-4-oxo-4,5-dihydro-1H-pyrazolo[4,3-c]pyridin-1-yl)-4-(cyclohexylamino)cyclohexyl)acetonitrile]: the IC50 in assay [1] is 64.2 nM; in assay [2], 0.12 nM.
On the same counts, the results for `CC(C)(C)OC(=O)[C@@H]1CC[C@@](CC#N)(n2nc(Nc3ccc(S(C)(=O)=O)cc3)c3c(=O)[nH]ccc32)CO1` (racemic) [Example 5-36, (2S,5S and 2R,5R)-tert-butyl 5-(cyanomethyl)-5-(3-((4-(methylsulfonyl)phenyl)amino)-4-oxo-4,5-dihydro-1H-pyrazolo[4,3-c]pyridin-1-yl)tetrahydro-2H-pyran-2-carboxylate] are 0.34 nM and 0.09 nM.
On the same counts, the results for `CO[C@H](c1ccc(Nc2nn([C@]3(CC#N)CC[C@@H](C(=O)OC(C)(C)C)OC3)c3cc[nH]c(=O)c23)cc1)C(F)(F)F` (single isomer, unassigned) [Example 21-7, (2S,5S)-tert-butyl 5-(cyanomethyl)-5-(4-oxo-3-((4-((R or S)-2,2,2-trifluoro-1-methoxyethyl)phenyl)amino)-4,5-dihydro-1H-pyrazolo[4,3-c]pyridin-1-yl)tetrahydro-2H-pyran-2-carboxylate] are 0.9 nM and 0.41 nM.
On the same counts, the results for `CC(C)(C)OC(=O)N1CCC(CC#N)(n2nc(Nc3ccc([C@H](O)C(F)(F)F)cc3)c3c(=O)[nH]ccc32)CC1` (single isomer, unassigned) [Example 5-2, tert-butyl 4-(cyanomethyl)-4-[4-oxo-3-({4-[(1S or 1R)-2,2,2-trifluoro-1-hydroxyethyl]phenyl}amino)-4,5-dihydro-1H-pyrazolo[4,3-c]pyridin-1-yl]piperidine-1-carboxylate] are 0.44 nM and 0.21 nM.
Turning to `COC1CN([C@H]2CC[C@](CC#N)(n3nc(Nc4ccc(Cl)c(F)c4)c4c(=O)[nH]ccc43)CC2)C1` [Example 18-24, Trans 2-(1-(3-((4-chloro-3-fluorophenyl)amino)-4-oxo-4,5-dihydro-1H-pyrazolo[4,3-c]pyridin-1-yl)-4-(3-methoxyazetidin-1-yl)cyclohexyl)acetonitrile], the IC50 in assay [1] was 5.87 nM; in assay [2], 0.09 nM.
`CC(c1ccc(Nc2nn([C@]3(CC#N)CC[C@@H](C(=O)OC(C)(C)C)OC3)c3cc[nH]c(=O)c23)cc1)N1CCCC1` (single isomer, unassigned) [Example 5-211, (2S,5S)-tert-butyl 5-(cyanomethyl)-5-(4-oxo-3-((4-((S or R)-1-(pyrrolidin-1-yl)ethyl)phenyl)amino)-4,5-dihydro-1H-pyrazolo [4,3-c]pyridin-1-yl) tetrahydro-2H-pyran-2-carboxylate]: the results for the IC50 in assay [1] and in assay [2] were 0.12 nM and 0.19 nM, respectively.
With `N#CC[C@@]1(n2nc(Nc3ccc([C@]4(C(F)(F)F)CCCCN4)cc3)c3c(=O)[nH]ccc32)CCOC[C@@H]1F` (single isomer, unassigned) [Example 5-265, 2-((3R,4R or 3S,4S)-3-fluoro-4-(4-oxo-3-((4-((S or R)-2-(trifluoromethyl)piperidin-2-yl)phenyl)amino)-4,5-dihydro-1H-pyrazolo[4,3-c]pyridin-1-yl)tetrahydro-2H-pyran-4-yl)acetonitrile], the IC50 in assay [1] stood at 0.04 nM; in assay [2] it was 0.05 nM.
As to `CC(C)(C)S(=O)(=O)c1ccc(Nc2nn(C3(CC#N)CCOCC3)c3cc[nH]c(=O)c23)cc1` [Example 5-252, 2-(4-(3-((4-(tert-butylsulfonyl)phenyl)amino)-4-oxo-4,5-dihydro-1H-pyrazolo[4,3-c]pyridin-1-yl)tetrahydro-2H-pyran-4-yl)acetonitrile], the IC50 was 0.84 nM in assay [1] and 0.34 nM in assay [2].
